Consider eight compounds from patent US12653805B2, “Targeting LASP1, eIF4A1, eIF4B and CXC4 with modulators and combinations thereof for cancer therapy” (The University of Toledo, priority 2019, dated 2026).

In data set [1] the test system is BCSCs. The conditions noted are these: cited from earlier work.
The target of data set [2] is T1, eIF4A1 (Homo sapiens, UniProt P60842).
T1 construct: A GQ-5′-UTR dual reporter was created in breast cancer cell lines; endogenous in cells
It counts as cell-based. Conditions: 3 different TNBC cell lines. An excerpt: A GQ-5′-UTR dual reporter was created in breast cancer cell lines which would report either a reduction in td-Tomato fluorescence or luciferase activity if eIF4A1 is inhibited by any of the compounds in the Prestwick library (FIGS. 26A-26B).

Data set [3] deals with triple-negative breast cancer (TNBC) cells. Put plainly: Cell viability studies with CAST compounds. It counts as cell-based. Conditions: for concentration level at which efficacy on tumor cell viability was shown: TNBC cell viability.
The subject of data set [4] is SUM-159-PT TNBC cells. Briefly: Evaluation of paclitaxel-resistant SUM-159-PT cells. It counts as cell-based, human. The method, then: (§1) Briefly, to assess the cell viability, 3×10^3 cells/well (SUM-159PT, SUM Pac 200 nM, MDA-Bone-Un eIF4A CC and KO) were seeded and the cells were allowed to attach and spread overnight under adherent or non-adherent low attachment conditions.

In data set [5] the test system is eIF4F complex in 231S cells. Put plainly: m7GTP pulldown assay (eIF4F complex). It counts as cell-based, human. The protocol:
231S cells were serum starved for 1 h and cells were stimulated (and prepared) as described in the co-immunoprecipitation section. 100 nM AMD3465 (CXCR4 antagonist, Sigma-Aldrich, St. Louis, Mo., Cat. No. SML1433-5MG) was incubated 30 min prior to stimulation. 1 mg of total protein lysate in 1 mL of Co-IP buffer was incubated with 25 μL of m7-GTP agarose beads overnight at 4° C. (Jena Biosciences, Jena, Germany, Cat. No. AC-155S). Following incubation, beads were washed with Co-IP buffer. Protein was eluted and analyzed by SDS-PAGE and Western blotting.

The test system of data set [6] is CXCR4 signaling in 231S cells. Briefly: Western blotting of phosphorylation of eIF4B, PDCD4, 4E-BP1 after CXCR4 activation. The data set is classed as cell-based, human. The protocol: Cell lysates were prepared and quantified as described. Western blots were incubated with the following 1° Abs: Cyclin D1 (Cell Signaling Technology, Danvers, Mass., Cat. No. 2922), eIF4A C32B4 (Cell Signaling Technology, Danvers, Mass., Cat. No. 2013), eIF4B 1F5 (Cell Signaling Technology, Danvers, Mass., Cat. No. 13088), p-eIF4B S422 (Thermo Scientific, Rockford, Ill., Cat No. PA5-38362), eIF4E C46H6 (Cell Signaling Technology, Danvers, Mass., Cat. No. 2067), eIF4G C45A4 (Cell Signaling Technology, Danvers, Mass., Cat. No. 2469), GST 26H1 (Cell Signaling Technology, Danvers, Mass., Cat. No. 2624), LASP1 8C6 (Biolegend, San Diego, Calif., Cat. No. 909301), MDM2 SMP14 (Santa Cruz Biotechnology, Dallas, Tex., Cat. No. sc-965), PDCD4 D29C6 (Cell Signaling Technology, Danvers, Mass., Cat. No. 9535), p-PDCD4 S67 (Sigma-Aldrich, St. Louis, Mo., Cat. No. P0072), ROCK1 C8F7 (Cell Signaling Technology, Danvers, Mass., Cat. No. 4035), survivin 71G4B7 (Cell Signaling Technology, Danvers, Mass., Cat. No. 2808), 4E-BP1 53H11 (Cell Signaling Technology, Danvers, Mass., Cat. No. 9644), p-4E-BP1 Thr70 (Cell Signaling Technology, Danvers, Mass., Cat. No. 9455), and β-tubulin D66 (Sigma/Aldrich, St. Louis, Mo., Cat. No. T0198). Following primary incubation, Western blots were incubated with Goat anti-Mouse IgG (H+L) Superclonal™ Secondary Ab conjugated to HRP (Thermo Scientific, Rockford, Ill., Cat No. A28177) or Goat anti-Rabbit IgG (H+L) Superclonal™ Secondary Ab conjugated to HRP (Thermo Scientific, Rockford, Ill., Cat No. A27036). Finally, blots were developed with Amersham™ ECL™ Prime Western Blotting Detection Reagent (GE Healthcare Life Sciences, Pittsburgh, Pa., Cat. No. RPN2232) and HyBlot ES™ Autoradiography Film (Denville Scientific, Swedesboro, N.J., Cat. No. E3212). Densitometry of the Western blots was performed using ImageJ. Calculation of fold change is given in the figure legend for each experiment.
(In general: Immunoblotting shows a protein as a band on a membrane.)

The subject of data set [7] is LASP1-eIF4A interaction in 231S cells. Briefly: Proximity ligation assay (PLA) of LASP1-eIF4A interaction. It counts as cell-based, human. Conditions: 100 nM AMD3465 30 min prior to 20 nM CXCL12 5 min. The protocol: The Duolink In Situ Orange Fluorescent kit (Sigma/Aldrich, St. Louis, Mo., Cat. No. DUO92102-1KT) was employed to detect the endogenous interaction between LASP1 and eIF4A in situ in 231S cells. The PLA was performed according to the manufacturer's instructions using a rabbit eIF4A1 antibody (Cohesion Biosciences, London, Purley, Cat. No. CQA1180) and a mouse LASP1 antibody (Biolegend, San Diego, Calif., Cat. No. 909301). The single Ab control condition represents the PLA reaction with only the LASP1 antibody. In addition, cells were stained with phalloidin (Life Technologies, Carlsbad, Calif., Cat. No. A12379) and nuclei with DRAQ5 (Thermo Scientific, Rockford, Ill., Cat No. 62251). Cells were stimulated and inhibited as described. Moreover, cells were fixed, stained, and permeabilized with standard methods. The images were acquired by two-photon confocal microscopy and processed with Leica Application Suite X software (Leica, Wetzlar, Germany). Quantification of the interaction dots was performed using ImageJ.

Data set [8] deals with SUM-159PT cells. Put plainly: Immunoblotting of SUM-159PT cells after chronic paclitaxel treatment (Pac 200).
The test system of data set [9] is paclitaxel-resistant SUM-159PT cells. Briefly: Chemosensitivity to paclitaxel of CRISPR control and eIF4A1-KO cells derived from paclitaxel-resistant SUM-159PT (CellTiter-Glo). It counts as cell-based, human. Conditions: 48 h; for IC50: Homo sapiens, SUM-159-PT. The protocol:
as §1
For generation of CRISPR/Cas9-mediated eIF4A1 knockout (KO), a set of CRISPR/Cas9 plasmids (Santa Cruz, Dallas, Tex., Cat. #—sc-402623) were transfected into therapy-naïve and paclitaxel-resistant tumor cells using UltraCruz reagent (Santa Cruz, Dallas, Tex., Cat. #— sc-395739) following the manufacturer's instructions. After 24 h, the supernatant was removed and replaced with regular media and cells were further cultured for a total of 72 h. eIF4A1 KO cells were sorted out based on the expression of green fluorescent protein (GFP). Single KO cells were isolated by limiting dilution in 96-well plates. The KO was verified by immunoblotting for eIF4A. Non-targeting CRISPR/Cas9 plasmids were employed to obtain the CRISPR-control cells (Santa Cruz, Dallas, Tex., Cat. #—sc-418922).
In general terms: Cellular ATP, detected with luciferase, serves as a proxy for viable cell number.

Where [10] appears, read: Pac 200 vs therapy naïve SUM-159PT.
The mark [11] stands for this setting: paclitaxel-resistant vs therapy-naïve SUM-159-PT.

T1 sequence (P60842 whole entry): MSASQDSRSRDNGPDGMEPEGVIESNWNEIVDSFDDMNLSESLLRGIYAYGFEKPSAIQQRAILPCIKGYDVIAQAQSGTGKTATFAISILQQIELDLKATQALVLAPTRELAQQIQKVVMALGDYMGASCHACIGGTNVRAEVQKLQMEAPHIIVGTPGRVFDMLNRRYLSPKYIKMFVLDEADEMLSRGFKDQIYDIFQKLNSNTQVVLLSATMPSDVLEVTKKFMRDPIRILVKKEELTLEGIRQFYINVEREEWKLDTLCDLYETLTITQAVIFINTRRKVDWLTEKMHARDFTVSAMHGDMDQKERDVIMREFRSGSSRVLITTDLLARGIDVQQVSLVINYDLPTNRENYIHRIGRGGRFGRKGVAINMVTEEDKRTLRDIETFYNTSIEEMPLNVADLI

Turning to `O=C(O)C(Cc1ccccc1[N+](=O)[O-])=NNc1nc(-c2ccc(Cl)c(Cl)c2)cs1` (mixture of isomers) [4EGI-1], the “NANOG, OCT4 levels” value in data set [1] (4EGI-1 treated BCSCs) is listed as “downregulated”. Moreover, the “proliferation of BCSCs” value in [1] is on record as “effectively inhibited”.
Turning to `CC(=O)O[C@H]1C[C@H](O[C@H]2[C@@H](O)C[C@H](O[C@H]3[C@@H](O)C[C@H](O[C@H]4CC[C@@]5(C)[C@H](CC[C@@H]6[C@@H]5C[C@@H](O)[C@]5(C)[C@@H](C7=CC(=O)OC7)CC[C@]65O)C4)O[C@@H]3C)O[C@@H]2C)O[C@H](C)[C@H]1O[C@@H]1O[C@H](CO)[C@@H](O)[C@H](O)[C@H]1O` [lanotoside C], the “activity of eIF4A1” value in data set [2] is reported as “potently inhibited”.
The same measure, in the same setting: the value for `C[C@]12CC[C@H](O)C[C@H]1CC[C@@H]1[C@@H]2CC[C@]2(C)[C@@H](C3=CC(=O)OC3)CC[C@]12O` [digitoxigenin] was “potently inhibited”.
Turning to `Clc1ccccc1COc1ccc2ccccc2c1CNCc1cccnc1` [AN-465/41673523], the “concentration level at which efficacy on tumor cell viability was shown” value in data set [3] turned out to be 75 µM.
By viability is commonly meant a read-out of living cells in per cent, often relative to untreated cells. As for `O=C(N/C(=C/c1cccnc1)c1nc2ccccc2[nH]1)c1cccc(Br)c1` [AE-848/14270010], the cytotoxicity at 50 µM in data set [3] (CRISPR/control cells, lowest concentration of 50 μM, read-out: loss of viability of TNBC cells) is roughly 35%. The compound further gave a viability at 50 µM in data set [3] (LASP1-knockout cells, 50 μM) of 50%. Moreover, the loss of viability in [3] (LASP1 genetically knocked out) is 50%. Moreover, in data set [3], the “concentration level at which efficacy on tumor cell viability was shown” value is 50 µM. Moreover, the cell viability change entry in [3] (eIF4A1 knocked out cells) was “gain in viability”.
`COc1cccc2c1C(=O)c1c(O)c3c(c(O)c1C2=O)C[C@@](O)(C(=O)CO)C[C@@H]3O[C@H]1C[C@H](N)[C@H](O)[C@H](C)O1` [doxorubicin]: the “cross-resistance of paclitaxel-resistant cells” value in data set [4] (paclitaxel-resistant SUM-159-PT cells) is given as “cross-resistant”.
With `c1ccc(CNCc2ccc(CN3CCCNCCNCCCNCC3)cc2)nc1` [AMD3465], the “effect on peak eIF4G recruitment at 5 min of CXCL12” value in data set [5] (100 nM AMD3465) is reported as “reduced”. For the same compound, in data set [5] (pre-treatment 100 nM AMD3465), the “effect on CXCL12-dependent recruitment of LASP1 at 5 min” value was “abrogated”. In data set [6] (AMD3465), the “effect on CXCL12-induced increase in p-eIF4B levels at 10 min” value is given as “abrogated” and the “effect on CXCL12-induced increase in pT70-4E-BP1 levels” value is listed as “abrogated”. Also, the “effect on CXCL12-induced increase in pS67-PDCD4 level at 5 min” value in data set [6] (AMD3465 pretreatment) is on record as “abrogated”. In addition, in [7], the “LASP1-eIF4A interaction dots (interactions/cell)” value was found to be 13.3±10.2 dots.
In general, IC50 refers to the midpoint of a concentration-inhibition curve. Turning to `CC(=O)O[C@H]1C(=O)[C@@]2(C)[C@H]([C@H](OC(=O)c3ccccc3)[C@]3(O)C[C@H](OC(=O)[C@H](O)[C@@H](NC(=O)c4ccccc4)c4ccccc4)C(C)=C1C3(C)C)[C@]1(OC(C)=O)CO[C@@H]1C[C@@H]2O` [paclitaxel], the IC50 in data set [4] (Homo sapiens, SUM-159-PT, parental SUM-159-PT cells, paclitaxel) was 2 nM. The resistance factor in [4] (paclitaxel-resistant vs parental SUM-159-PT) stood at 675.5 fold. Further, in [8] (setting [10]), the “enhanced expression of Cyclin D3” value worked out at 2.7 fold, the “enhanced expression of NANOG” value is listed as 1.4 fold, the “enhanced expression of OCT4” value is listed as 3 fold and the “enhanced expression of SOX2” value worked out at 2.7 fold. Moreover, in data set [8] (setting [10]), the “enhanced expression of survivin or BIRC5” value was 4 fold; the “increase in ABCB1 (P-glycoprotein, MDR1) protein level” value is listed as 10.8 fold; the “increase in ABCG2 (BCRP) protein level” value is 2.4 fold; the “increase in ALDH1A1 level” value came to 2.4 fold. In addition, in [8] (setting [10]), the “increase in CD44 level” value worked out at 6.1 fold and the “increase in expression of eIF4A” value is on record as 25.8 fold. Further, in [8] (Pac 200 vs therapy naïve SUM-159PT, not statistically significant), the “enhanced expression of ROCK1” value stood at 1.5 fold. For the same compound, in [8] (setting [11]), the “expression of E-cadherin” value was “decreasing trend” and the “increase in Snail1 protein level” value turned out to be 2 fold. For the same compound, the “increase in ABCB1 protein level, independent verification” value in data set [8] (three biological replicates, p<0.0001) turned out to be 14 fold. Besides, in data set [8] (three biological replicates, p<0.001), the “increase in ABCG2 protein level, independent verification” value is given as 4 fold. The compound also came in with an IC50 in data set [9] (CRISPR-control SUM-159PT cells (from Pac 200)) of 904 nM. In [9] (eIF4A1-KO cells (from Pac 200)), this compound registered a 50% inhibitory concentration (IC50) of 609 nM. In addition, the “change in IC50, eIF4A1-KO vs CRISPR-control” value in [9] (paclitaxel) is on record as −1.5 fold.
